Where two headings read alike, the source gives them in different places.
Legend:
kinases (468) [1] = target: kinases (468) (Homo sapiens, UniProt P42336, E545K); conditions: PIK3CA(E545K); 1000 nM
kinases (468) [2] = target: kinases (468) (Homo sapiens, UniProt P36897); conditions: kinase TGFBR1 (Entrez TGFBR1); compound concentration 1000 nM
kinases (468) [3] = target: kinases (468) (Homo sapiens, UniProt P08631); conditions: HCK; 1000 nM
kinases (468) [4] = target: kinases (468) (Homo sapiens, UniProt O96013); conditions: PAK4; 1000 nM
kinases (468) [5] = target: kinases (468) (Homo sapiens, UniProt Q6P3R8); conditions: NEK5; 1000 nM
kinases (468) [6] = target: kinases (468) (Homo sapiens, UniProt P17948); conditions: FLT1; 1000 nM
kinases (468) [7] = target: kinases (468) (Homo sapiens, UniProt Q15759); conditions: p38-beta (MAPK11); 1000 nM
kinases (468) [8] = target: kinases (468) (Homo sapiens, UniProt Q86UX6); conditions: kinase YANK3 (Entrez STK32C); compound concentration 1000 nM
kinases (468) [9] = target: kinases (468) (Homo sapiens, UniProt P54764); conditions: EPHA4; 1000 nM
kinases (468) [10] = target: kinases (468) (Homo sapiens, UniProt Q14289); conditions: PYK2 (PTK2B); 1000 nM
kinases (468) [11] = target: kinases (468) (Homo sapiens, UniProt P08581, Y1235D); conditions: MET(Y1235D); 1000 nM
kinases (468) [12] = target: kinases (468) (Homo sapiens, UniProt P53779); conditions: JNK3 (MAPK10); 1000 nM
kinases (468) [13] = target: kinases (468) (Homo sapiens, UniProt Q9BQI3); conditions: EIF2AK1; 1000 nM
kinases (468) [14] = target: kinases (468) (Homo sapiens, UniProt Q8IVW4); conditions: CDKL3; 1000 nM
kinases (468) [15] = target: kinases (468) (Homo sapiens, UniProt Q16832); conditions: DDR2; 1000 nM
kinases (468) [16] = target: kinases (468) (Homo sapiens, UniProt P00519, F317L); conditions: 1000 nM
kinases (468) [17] = target: kinases (468) (Homo sapiens, UniProt P19525); conditions: PRKR (EIF2AK2); 1000 nM
kinases (468) [18] = target: kinases (468) (Homo sapiens, UniProt Q9NWZ3); conditions: IRAK4; 1000 nM
kinases (468) [19] = target: kinases (468) (Homo sapiens, UniProt P54646); conditions: AMPK-alpha2 (PRKAA2); 1000 nM
kinases (468) [20] = target: kinases (468) (Homo sapiens, UniProt P35968); conditions: kinase VEGFR2 (Entrez KDR); compound concentration 1000 nM
kinases (468) [21] = target: kinases (468) (Homo sapiens, UniProt Q9NQU5); conditions: PAK6; 1000 nM
kinases (468) [22] = target: kinases (468) (Homo sapiens, UniProt Q9BYT3); conditions: kinase STK33 (Entrez STK33); compound concentration 1000 nM
kinases (468) [23] = target: kinases (468) (Homo sapiens, UniProt P08581); conditions: MET; 1000 nM
kinases (468) [24] = target: kinases (468) (Homo sapiens, UniProt P25098); conditions: GRK2 (ADRBK1); 1000 nM
kinases (468) [25] = target: kinases (468) (Homo sapiens, UniProt P16591); conditions: FER; 1000 nM
kinases (468) [26] = target: kinases (468) (Homo sapiens, UniProt P42336, M1043I); conditions: PIK3CA(M1043I); 1000 nM
kinases (468) [27] = target: kinases (468) (Homo sapiens, UniProt Q9H3Y6); conditions: kinase SRMS (Entrez SRMS); compound concentration 1000 nM
kinases (468) [28] = target: kinases (468) (Plasmodium falciparum, UniProt P61075); conditions: PFPK5(P.falciparum) (MAL13P1.279); 1000 nM
kinases (468) [29] = target: kinases (468) (Homo sapiens, UniProt O15264); conditions: p38-delta (MAPK13); 1000 nM
kinases (468) [30] = target: kinases (468) (Homo sapiens, UniProt P48736); conditions: PIK3CG; 1000 nM
kinases (468) [31] = target: kinases (468) (Homo sapiens, UniProt Q13177); conditions: PAK2; 1000 nM
kinases (468) [32] = target: kinases (468) (Homo sapiens, UniProt Q99755); conditions: PIP5K1A; 1000 nM
kinases (468) [33] = target: kinases (468) (Homo sapiens, UniProt P00533, L858R/T790M); conditions: EGFR(L858R,T790M); 1000 nM
kinases (468) [34] = target: kinases (468) (Homo sapiens, UniProt P36888, N841I); conditions: FLT3(N841I); 1000 nM

Chain of kinases (468) (Homo sapiens, UniProt P00519, F317L) (P00519 whole entry F317L): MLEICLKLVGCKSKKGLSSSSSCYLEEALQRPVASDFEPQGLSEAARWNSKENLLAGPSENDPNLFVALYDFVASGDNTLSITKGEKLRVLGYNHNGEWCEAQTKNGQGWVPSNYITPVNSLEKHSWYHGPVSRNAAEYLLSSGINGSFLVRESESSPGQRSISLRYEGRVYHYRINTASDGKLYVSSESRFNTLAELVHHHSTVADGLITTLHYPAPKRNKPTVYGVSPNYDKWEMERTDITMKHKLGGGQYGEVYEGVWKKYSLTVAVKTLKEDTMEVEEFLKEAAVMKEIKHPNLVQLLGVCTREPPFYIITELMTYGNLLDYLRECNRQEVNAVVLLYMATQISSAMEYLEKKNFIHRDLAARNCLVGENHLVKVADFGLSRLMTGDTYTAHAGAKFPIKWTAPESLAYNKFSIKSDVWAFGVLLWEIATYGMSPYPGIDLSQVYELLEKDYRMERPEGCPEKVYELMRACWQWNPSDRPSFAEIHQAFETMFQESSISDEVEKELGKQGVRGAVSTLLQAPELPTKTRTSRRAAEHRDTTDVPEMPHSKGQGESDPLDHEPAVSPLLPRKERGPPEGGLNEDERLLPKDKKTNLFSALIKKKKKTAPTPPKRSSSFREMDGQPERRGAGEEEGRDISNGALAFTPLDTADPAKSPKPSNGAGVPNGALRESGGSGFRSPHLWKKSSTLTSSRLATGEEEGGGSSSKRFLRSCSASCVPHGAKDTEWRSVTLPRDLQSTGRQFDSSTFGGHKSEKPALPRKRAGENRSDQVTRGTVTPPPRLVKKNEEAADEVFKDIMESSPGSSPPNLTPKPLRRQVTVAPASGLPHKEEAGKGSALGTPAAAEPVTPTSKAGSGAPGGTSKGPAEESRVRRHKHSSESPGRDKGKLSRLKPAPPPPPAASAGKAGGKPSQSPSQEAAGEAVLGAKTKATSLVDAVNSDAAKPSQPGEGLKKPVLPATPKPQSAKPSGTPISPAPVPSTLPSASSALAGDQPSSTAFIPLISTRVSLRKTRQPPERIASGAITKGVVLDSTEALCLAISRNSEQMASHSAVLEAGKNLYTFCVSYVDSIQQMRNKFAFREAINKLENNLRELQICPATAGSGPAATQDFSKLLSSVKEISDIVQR
Chain of kinases (468) (Homo sapiens, UniProt P08581, Y1235D) (P08581 25-1390 Y1235D): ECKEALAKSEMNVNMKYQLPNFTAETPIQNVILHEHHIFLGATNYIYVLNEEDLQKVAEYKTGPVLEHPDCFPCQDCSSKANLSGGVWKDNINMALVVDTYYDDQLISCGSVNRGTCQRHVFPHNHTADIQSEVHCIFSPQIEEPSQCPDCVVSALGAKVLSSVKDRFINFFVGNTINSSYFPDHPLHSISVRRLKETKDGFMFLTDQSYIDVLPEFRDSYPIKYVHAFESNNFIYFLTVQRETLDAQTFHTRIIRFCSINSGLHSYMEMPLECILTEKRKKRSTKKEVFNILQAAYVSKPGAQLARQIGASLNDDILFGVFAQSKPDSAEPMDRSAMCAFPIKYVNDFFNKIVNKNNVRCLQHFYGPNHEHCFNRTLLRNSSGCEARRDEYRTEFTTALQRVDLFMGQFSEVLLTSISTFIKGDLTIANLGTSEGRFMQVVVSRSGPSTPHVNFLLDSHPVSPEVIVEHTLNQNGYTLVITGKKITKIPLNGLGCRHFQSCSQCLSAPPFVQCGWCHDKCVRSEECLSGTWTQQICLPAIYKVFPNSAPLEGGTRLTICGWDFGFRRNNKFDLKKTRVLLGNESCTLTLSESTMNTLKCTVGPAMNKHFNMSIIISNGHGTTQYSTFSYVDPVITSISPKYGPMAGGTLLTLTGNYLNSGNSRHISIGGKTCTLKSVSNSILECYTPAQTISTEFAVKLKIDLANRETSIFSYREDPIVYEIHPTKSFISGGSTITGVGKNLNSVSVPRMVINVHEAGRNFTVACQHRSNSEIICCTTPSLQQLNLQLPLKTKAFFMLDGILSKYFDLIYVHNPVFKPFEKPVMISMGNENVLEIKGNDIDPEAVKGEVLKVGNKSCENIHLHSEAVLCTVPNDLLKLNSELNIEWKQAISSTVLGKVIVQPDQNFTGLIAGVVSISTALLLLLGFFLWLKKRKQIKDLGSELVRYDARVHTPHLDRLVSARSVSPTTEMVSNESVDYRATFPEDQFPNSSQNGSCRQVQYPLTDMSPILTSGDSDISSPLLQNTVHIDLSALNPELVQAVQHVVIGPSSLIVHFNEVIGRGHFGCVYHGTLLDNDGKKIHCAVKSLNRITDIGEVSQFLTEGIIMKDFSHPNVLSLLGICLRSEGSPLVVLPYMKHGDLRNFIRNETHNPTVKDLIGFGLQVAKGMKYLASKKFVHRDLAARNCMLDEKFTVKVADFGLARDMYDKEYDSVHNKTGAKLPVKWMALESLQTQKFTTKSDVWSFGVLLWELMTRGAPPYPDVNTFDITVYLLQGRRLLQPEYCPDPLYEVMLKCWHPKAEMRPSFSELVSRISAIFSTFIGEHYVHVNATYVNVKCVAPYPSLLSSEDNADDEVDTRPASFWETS
Chain of kinases (468) (Homo sapiens, UniProt P36897) (P36897 34-503): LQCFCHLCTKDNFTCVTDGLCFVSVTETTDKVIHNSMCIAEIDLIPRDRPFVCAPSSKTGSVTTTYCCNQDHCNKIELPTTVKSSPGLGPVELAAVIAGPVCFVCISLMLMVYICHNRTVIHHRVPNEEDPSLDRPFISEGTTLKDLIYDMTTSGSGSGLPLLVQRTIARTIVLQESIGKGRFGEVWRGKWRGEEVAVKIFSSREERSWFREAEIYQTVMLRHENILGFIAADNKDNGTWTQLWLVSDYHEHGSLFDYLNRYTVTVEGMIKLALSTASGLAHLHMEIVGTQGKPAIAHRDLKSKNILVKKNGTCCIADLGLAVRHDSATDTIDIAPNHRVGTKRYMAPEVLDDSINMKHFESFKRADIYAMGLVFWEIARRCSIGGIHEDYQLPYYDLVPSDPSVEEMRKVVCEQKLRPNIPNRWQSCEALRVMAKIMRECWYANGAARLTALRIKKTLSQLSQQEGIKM
Chain of kinases (468) (Homo sapiens, UniProt P08631) (P08631 whole entry): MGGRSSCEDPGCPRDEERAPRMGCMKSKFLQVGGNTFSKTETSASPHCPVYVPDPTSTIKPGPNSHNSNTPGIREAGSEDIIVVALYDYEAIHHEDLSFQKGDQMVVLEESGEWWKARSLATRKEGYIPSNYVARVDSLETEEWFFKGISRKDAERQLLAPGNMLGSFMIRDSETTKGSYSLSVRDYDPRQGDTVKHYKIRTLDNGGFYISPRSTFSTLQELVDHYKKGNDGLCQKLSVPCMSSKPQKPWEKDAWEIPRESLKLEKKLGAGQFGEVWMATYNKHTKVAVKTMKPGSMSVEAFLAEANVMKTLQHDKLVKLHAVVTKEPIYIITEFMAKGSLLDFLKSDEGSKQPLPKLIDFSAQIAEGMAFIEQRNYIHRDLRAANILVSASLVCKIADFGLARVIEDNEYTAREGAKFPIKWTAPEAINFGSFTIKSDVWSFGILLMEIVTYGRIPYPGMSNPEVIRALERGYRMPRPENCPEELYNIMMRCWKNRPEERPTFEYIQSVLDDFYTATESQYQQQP
Chain of kinases (468) (Homo sapiens, UniProt O15264) (O15264 whole entry): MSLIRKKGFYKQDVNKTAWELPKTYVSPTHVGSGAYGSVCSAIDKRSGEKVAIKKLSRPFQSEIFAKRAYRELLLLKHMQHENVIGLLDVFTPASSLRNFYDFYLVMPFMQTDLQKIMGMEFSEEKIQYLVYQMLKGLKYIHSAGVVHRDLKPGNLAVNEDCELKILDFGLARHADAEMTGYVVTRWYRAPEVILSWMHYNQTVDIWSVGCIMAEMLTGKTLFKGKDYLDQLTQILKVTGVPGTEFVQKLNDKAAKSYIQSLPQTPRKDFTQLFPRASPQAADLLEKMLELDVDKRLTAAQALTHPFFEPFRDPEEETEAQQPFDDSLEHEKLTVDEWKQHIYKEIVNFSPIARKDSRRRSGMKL
Chain of kinases (468) (Homo sapiens, UniProt Q16832) (Q16832 22-855): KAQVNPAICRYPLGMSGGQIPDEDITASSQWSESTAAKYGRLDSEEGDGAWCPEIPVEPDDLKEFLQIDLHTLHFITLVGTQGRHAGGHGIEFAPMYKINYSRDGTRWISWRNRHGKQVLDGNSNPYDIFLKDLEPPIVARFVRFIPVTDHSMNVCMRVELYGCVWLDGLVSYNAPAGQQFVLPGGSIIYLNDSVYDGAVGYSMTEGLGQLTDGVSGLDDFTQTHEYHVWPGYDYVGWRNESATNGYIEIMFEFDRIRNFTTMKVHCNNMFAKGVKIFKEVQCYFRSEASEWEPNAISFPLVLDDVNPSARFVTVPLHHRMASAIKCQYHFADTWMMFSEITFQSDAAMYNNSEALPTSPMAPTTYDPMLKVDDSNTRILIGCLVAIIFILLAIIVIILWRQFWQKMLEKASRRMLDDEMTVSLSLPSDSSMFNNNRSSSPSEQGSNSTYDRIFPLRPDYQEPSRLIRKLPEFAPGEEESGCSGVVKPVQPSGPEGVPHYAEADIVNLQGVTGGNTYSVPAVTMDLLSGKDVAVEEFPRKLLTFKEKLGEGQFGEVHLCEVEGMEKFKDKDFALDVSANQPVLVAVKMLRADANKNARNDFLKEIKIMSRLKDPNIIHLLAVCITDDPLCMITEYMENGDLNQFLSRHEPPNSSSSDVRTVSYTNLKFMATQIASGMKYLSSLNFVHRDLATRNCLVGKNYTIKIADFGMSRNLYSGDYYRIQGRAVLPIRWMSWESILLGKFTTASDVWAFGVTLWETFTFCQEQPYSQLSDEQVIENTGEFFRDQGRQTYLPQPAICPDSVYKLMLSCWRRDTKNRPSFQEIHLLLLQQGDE
Chain of kinases (468) (Homo sapiens, UniProt Q15759) (Q15759 whole entry): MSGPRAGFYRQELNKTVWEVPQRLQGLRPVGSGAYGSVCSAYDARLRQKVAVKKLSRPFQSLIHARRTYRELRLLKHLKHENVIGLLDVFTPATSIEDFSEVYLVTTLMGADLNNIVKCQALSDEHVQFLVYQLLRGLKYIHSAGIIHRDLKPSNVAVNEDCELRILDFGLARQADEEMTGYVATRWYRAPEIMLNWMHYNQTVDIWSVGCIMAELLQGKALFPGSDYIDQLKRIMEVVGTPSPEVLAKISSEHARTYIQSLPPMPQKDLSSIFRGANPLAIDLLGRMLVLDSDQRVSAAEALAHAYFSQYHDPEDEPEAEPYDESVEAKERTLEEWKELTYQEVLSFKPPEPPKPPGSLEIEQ

Compound: C[C@H]1C[C@@H](O)CN(c2ncc(Cl)c(Nc3ccc4c(c3)c3c(c(=O)n4C)OCC(F)(F)[C@H](C4CC4)N3)n2)C1 [CCT373566_9A]
- Percent Control (kinases (468) [1]): 95%
- Percent Control (kinases (468) [2]): 89%
- Percent Control (kinases (468) [3]): 98%
- Percent Control (kinases (468) [4]): 100%
- Percent Control (kinases (468) [5]): 100%
- Percent Control (kinases (468) [6]): 100%
- Percent Control (kinases (468) [7]): 100%
- Percent Control (kinases (468) [8]): 100%
- Percent Control (kinases (468) [9]): 100%
- Percent Control (kinases (468) [10]): 98%
- Percent Control (kinases (468) [11]): 99%
- Percent Control (kinases (468) [12]): 87%
- Percent Control (kinases (468) [13]): 72%
- Percent Control (kinases (468) [14]): 100%
- Percent Control (kinases (468) [15]): 100%
- Percent Control (kinases (468) [16]; ABL1(F317L)-nonphosphorylated): 100%
- Percent Control (kinases (468) [16]; ABL1(F317L)-phosphorylated): 93%
- Percent Control (kinases (468) [17]): 95%
- Percent Control (kinases (468) [18]): 80%
- Percent Control (kinases (468) [19]): 100%
- Percent Control (kinases (468) [20]): 95%
- Percent Control (kinases (468) [21]): 93%
- Percent Control (kinases (468) [22]): 100%
- Percent Control (kinases (468) [23]): 100%
- Percent Control (kinases (468) [24]): 41%
- Percent Control (kinases (468) [25]): 100%
- Percent Control (kinases (468) [26]): 89%
- Percent Control (kinases (468) [27]): 90%
- Percent Control (kinases (468) [28]): 89%
- Percent Control (kinases (468) [29]): 94%
- Percent Control (kinases (468) [30]): 98%
- Percent Control (kinases (468) [31]): 100%
- Percent Control (kinases (468) [32]): 77%
- Percent Control (kinases (468) [33]): 81%
- Percent Control (kinases (468) [34]): 94%

— paper PMC9234961 (Journal of Medicinal Chemistry, 2022)
